From patent US20240327335A1, “AMIDE COMPOUND HAVING IODOARYL OR IODOHETEROARYL, PREPARATION METHOD THEREFOR AND USE THEREOF” (CARDIOLINK SCIENCE (SHENZHEN) MEDICAL TECHNOLOGY …, priority 2022, published 2024)

Compound | melting point [°C]
COC(CNC(=O)c1cc(I)cc(I)c1I)OC [Compound I-1, N-(2,2-dimethoxyethyl)-2,3,5-triiodobenzamide] | 180 to 182
COC(CNC(=O)Cc1cc(I)cc(I)c1I)OC [Compound I-11] | 172 to 173
COC(CNC(=O)COc1c(I)cc(I)cc1I)OC [Compound I-10] | 170 to 171
COC(CNC(=O)c1ccc(I)cc1)OC [Compound I-6] | 156 to 158
COC(CNC(=O)c1ccc(I)cn1)OC [Compound I-9] | 178 to 180
COC(CNC(=O)c1cc(I)ccc1I)OC [Compound I-7] | 165 to 166
O=CCNC(=O)c1cc(I)cc(I)c1I [Compound I-8] | 90 to 92
